According to patent US9376449B2, “Indole carboxamide derivative” (Astellas Pharma Inc., priority 2012, dated 2016):

Experiments:
urethral pressure = assay: Effect of test compound on urethral pressure in anesthetized rats; assay type: in vivo, rat; conditions: urethane-anesthetized SD female rats
Text: Test Example 3 Test to Evaluate Effect of Test Compound on Urethral Pressure
It has been reported that an increase in the urethra pressure is useful for the treatment of urinary incontinence, particularly stress urinary incontinence (for example, Drugs, 64, 14, 1503-1516 (2004)). In order to confirm whether the compound of the present invention increases the urethra pressure and thus is useful for the treatment of urinary incontinence, particularly stress urinary incontinence, the following tests were carried out.
SD female rats were anesthetized with urethane and subjected to laparotomy. Then, the bladder apex was incised and a catheter was inserted from the bladder apex. Further, the catheter tip was ligated and fixed to be located in the proximal urethra portion. The catheter was connected to a pressure transducer and an infusion pump. Further, a catheter for administrating the compound was fitted into the femoral vein. Physiological saline was continuously infused into the urethra and the perfusion pressure in the urethra was measured. After the urethral pressure was stabilized, the test compound that had been dissolved in physiological saline, or physiological saline including 5% dimethylacetamide and 0.5% Cremophor was administered intravenously at 0.1 mg/kg, and a change in urethral pressures was measured.
Further, the results of administering an active metabolite of midodrine (ST-1059: purchased from CHEMIZON) (J. Urology, 118, 980-982 (1977)) which is an α1 adrenoceptor agonist and has an effect on stress urinary incontinence in rat doses (0.01 mg/kg) presumed to correspond to the clinical doses are referenced and shown in the Tables below. The increment value in the urethra pressures of ramelteon and the Example compounds of the present invention at the time of administration are shown in Table 4. Ex represents Example No. of the test compound.

human MT2 receptor = molecular target: T1, human MT2 receptor (Homo sapiens, UniProt P49286); assay: Activation of human MT2 receptor in receptor-expressing HEK293 cells (intracellular Ca2+, FLIPR); assay type: cell-based; conditions: for Emax: HEK293, maximum reaction by ramelteon taken as 100%, solvent only 0%; for EC50: HEK293 cells stably expressing human MT2 and Gq/i chimeric G-protein, intracellular Ca2+ by FLIPR
T1 sequence (P49286 1-362): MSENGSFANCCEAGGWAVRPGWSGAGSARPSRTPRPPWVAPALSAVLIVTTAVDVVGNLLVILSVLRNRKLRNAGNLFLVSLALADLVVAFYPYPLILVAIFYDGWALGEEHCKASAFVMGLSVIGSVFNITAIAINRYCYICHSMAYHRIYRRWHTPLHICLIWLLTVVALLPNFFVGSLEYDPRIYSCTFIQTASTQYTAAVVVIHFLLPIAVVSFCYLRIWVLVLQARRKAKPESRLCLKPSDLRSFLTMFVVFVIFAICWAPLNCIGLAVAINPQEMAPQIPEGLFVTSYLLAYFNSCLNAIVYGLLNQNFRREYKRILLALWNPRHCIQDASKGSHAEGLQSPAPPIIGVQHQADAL
Procedure: (§1) (1) Isolation of Human MT1 and MT2 Receptor and Construction of Expression Vector
(§2) A human MT1 receptor gene (GenBank Accession No.: NM_005958.3) and a human MT2 receptor gene (GenBank Accession No.: NM_005959.3) were each introduced into an expression vector pCDNA3.1/Zeo (Invitrogen, Inc.).
(§3) (2) Construction of Cells Stably Expressing Human MT1 and Human MT2 Receptor
(§4) The introduction was carried out according to the attached instructions, using a Lipofectoamine (registered trademark) 2000 Reagent (Invitrogen, Inc.). Zeocin and hygromycin were used as a resistant drug, and the cell was incubated for 15 days at 0.02 mg/mL and 0.05 mg/mL, respectively, thereby acquiring drug-resistant clones.
(§5) (3) Measurement of Intracellular Ca^2+ Concentration by FLIPR (Registered Trademark)
(§6) The respective stably expressing cells were dispensed into 96-well poly-D-lysine-coated plates (Falcon Co.) to 40,000 cells/well the day before the experiment, and incubated overnight in a DMEM (Invitrogen, Inc.) medium including 10% FBS at 37° C. and 5% CO2. The medium was replaced with a loading buffer (washing solution (Hank's balanced salt solution (HBSS), 20 mM HEPES-NaOH, 2.5 mM probenecid) including Fluo-4AM (Dojindo Co.) at 4 μM), and incubated for 1 hour at 37° C. and 5% CO2. Thereafter, the cells were washed with a plate washer (ELx405, BIO-TEK Instrument, Inc.) set with the washing solution, and set in an intracellular Ca^2+ concentration measuring systems (FLIPR (registered trademark), Molecular Device Co.). The test compound was dissolved in the washing solution in advance, diluted to a final concentration of −12 to −5 log M, set in a FLIPR (registered trademark) device together with the cells, and added to the cells in the device. At this time, a change in the intracellular Ca^2+ concentrations was measured.
(§7) Ex represents Example No. of the test compound.

human MT1 receptor = human MT1 receptor (Homo sapiens, UniProt P48039); assay: Activation of human MT1 receptor in receptor-expressing HEK293 cells (intracellular Ca2+, FLIPR); assay type: cell-based; conditions: for Emax: HEK293, maximum reaction by ramelteon taken as 100%, solvent only 0%, read-out: MT1 Emax (%); for EC50: HEK293 cells stably expressing human MT1 and Gq/i chimeric G-protein, intracellular Ca2+ by FLIPR
human MT1 receptor, sequence (P48039 whole entry): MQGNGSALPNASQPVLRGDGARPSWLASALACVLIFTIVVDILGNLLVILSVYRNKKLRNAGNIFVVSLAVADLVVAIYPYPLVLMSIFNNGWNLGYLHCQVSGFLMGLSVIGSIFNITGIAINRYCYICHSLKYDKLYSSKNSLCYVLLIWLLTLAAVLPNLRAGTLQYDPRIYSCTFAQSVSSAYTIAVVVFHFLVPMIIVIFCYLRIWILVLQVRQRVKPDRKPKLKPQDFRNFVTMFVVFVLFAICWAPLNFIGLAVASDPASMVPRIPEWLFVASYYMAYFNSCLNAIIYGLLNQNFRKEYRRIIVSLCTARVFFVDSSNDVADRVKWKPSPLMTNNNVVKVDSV
Procedure: as §1, §2, §3, §4, §5, §6, §7

[1] = CNS penetration: CSF to plasma unbound concentration ratio in rat; assay type: in vivo; conditions: CSF and plasma (unbound), iv, 15 minutes after intravenous administration, CCSF/Cplasma,u, read-out: Kp,uu,CSF,iv15min
Procedure: Test Example 4 Test for Evaluating CNS Penetration
(1) Measurement of Unbound Fraction (fp) in Rat Plasma
A test compound (100 μg/mL, 50% acetonitrile solution) at 1% (v/v) with respect to the amount of the plasma was added to rat plasma, and dispensed to a sample for a supernatant and a sample for the plasma. The sample for a supernatant was ultracentrifuged at 436,000×g and 37° C. for 140 minutes, and the sample for the plasma was incubated at 37° C. for 140 minutes.
After 140 minutes, the sample for a supernatant after the ultracentrifugation and the sample for the plasma were taken, and mixed with the blank plasma or the blank supernatant, respectively. Acetonitrile including an internal standard material was added to each of the samples, and after the centrifugation at 2150×g and 4° C. for 10 minutes the supernatant was injected into LC-MS/MS.
The unbound fraction in the plasma was calculated by the following equation.
(wherein fp: an unbound fraction in the plasma and D: a dilution rate of the plasma. fu,app=peak area ratio of supernatant sample/peak area ratio of the plasma sample, and peak area ratio=peak area of test compound/peak area of internal standard material).
(2) The CSF to Plasma Unbound Concentration Ratio in Rat
A 50% acetonitrile solution and an acetonitrile including internal standard material was added to the collected plasma or CSF. After centrifugation at 4° C. and 2150×g for 10 minutes, the supernatant was injected into LC-MS/MS, and the total concentration of the test compound in the plasma (Cplasma,t) and the concentration of the test compound in CSF (CCSF) were obtained. The unbound concentration in the plasma (Cplasma,u) of the test compound and the CSF-to plasma unbound concentration ratio (Kp,uu,CSF) of the test compound was calculated by the following equation.
as §7

3T3 = assay: In vitro 3T3 NRU phototoxicity test; assay type: cell-based
Procedure: Test Example 6 Drug Pharmacokinetic Test, Safety Pharmacology Test, and Toxicity Test
Using some Example compounds of the present invention, a drug Pharmacokinetic test, a safety pharmacology test, and a toxicity test were carried out.
(iii) For the toxicity test, for example, an in vitro phototoxicity test was carried out. The evaluation of the in vitro phototoxicity test was carried out in accordance with Guidance for industry photosafety testing, Center for Drug Evaluation and Research Food and Drug Administration, 2003, which is a guideline of FDA (U.S. Food and Drug Administration), and Note for guidance on photosafety testing (CPMP/SWP/398/01, 2002) which is a guideline of EMA (European Medicines Agency), and the method described in OECD guideline for testing of chemicals 432: In vitro 3T3 NRU phototoxicity test, 2004, which is a test method described in the report of OECD.

Row | SMILES | Increment value in the urethra pressures (mmHg) (urethral pressure; 0.01 mg/kg (rat dose presumed to correspond to clinical dose)) | Emax (human MT2 receptor) [%] | EC50 (human MT2 receptor) [nM] | Emax (human MT1 receptor) [%] | EC50 (human MT1 receptor) [nM] | Increment value in the urethra pressures (mmHg) (urethral pressure; 0.1 mg/kg intravenously) | Kp uu at 0.25 h [1] | phototoxicity action (3T3)
1 | COc1ccc(OC)c(C(O)CN)c1 (centres unmarked) [ST-1059, reference compound] | 4.9 ± 1.1 |  |  |  |  |  |  | 
2 | CNC(=O)c1[nH]c2ccc(OC)nc2c1CCNC(=O)C(F)F [Ex 48] |  | 109 | 43 | 122 | 12 | 7.3 ± 0.7 |  | 
3 | CNC(=O)NCCc1c(C(=O)NC)[nH]c2ccc(OC)cc12 [Ex 8, 5-methoxy-N-methyl-3-{2-[(methylcarbamoyl)amino]ethyl}-1H-indole-2-carboxamide] |  | 119 | 19 | 124 | 12 | 6.0 ± 0.4 | 0.03 | no phototoxicity action
4 | CNC(=O)c1[nH]c2c(F)cc(OC)cc2c1CCNC(=O)C(F)F [Ex 53] |  | 105 | 9.2 | 103 | 19 | 10.5 ± 0.6 |  | 
5 | CNC(=O)c1[nH]c2cc(Cl)c(OC)cc2c1CCNC(C)=O [Ex 12, 3-(2-acetamidoethyl)-6-chloro-5-methoxy-N-methyl-1H-indole-2-carboxamide] |  | 70 | 12 | 68 | 86 |  |  | 
6 | CCCC(=O)NCCc1c(C(=O)NC)[nH]c2cc(Cl)c(OC)cc12 [Ex 34, 3-[2-(butyrylamino)ethyl]-6-chloro-5-methoxy-N-methyl-1H-indole-2-carboxamide] |  | 92 | 4.4 | 75 | 32 |  |  | 
